Measured values reported in patent publication US20240261474A1, “BIODEGRADABLE TISSUE SCAFFOLD WITH SECONDARY MATRIX TO HOST WEAKLY ADHERENT CELLS” (THE U.S.A., as represented by the Secretary, Department of …, priority 2021, published 2024).
“Also recorded” adds a separate entry of the source.

Key:
Type in all cases: cell-based, human
iPSC-RPE [1] = assay: Brightfield imaging of RPE pigmentation; details: compared to DMSO-treated iPSC-RPE, AGN 193109 0.2 μM, endo-IWR-1 4 uM
Protocol: Brightfield imaging was used to determine RPE pigmentation defects, while hematoxylin and eosin (H&E) staining was valuable to inspect gross morphologic alterations of the monolayer. A section of transwell membrane was cut and mounted on a glass slide for brightfield imaging. Pigmentation levels were preserved after ENDO-1-IWR and AGN 193109 treatments as compared to DMSO-treated iPSC-RPE.
(§1) AGN 193109 was used at 0.2 μM and endo-IWR-1 at 4 uM. Both drugs were dissolved in DMSO, so that the final concentration of DMSO was not more than 0.1%. The final concentration of DMSO control was 0.1%. The compounds were added in RPE maturation medium until cells were mature. Gross cell morphology was also analyzed (FIGS. 20B, 20D, and 20F, left image) to detect possible abnormalities. Fine intracellular structures were examined for alterations with transmission electron microscopy (TEM, FIGS. 20B, 20D, and 20F, right image).

iPSC-RPE [2] = assay: Trans-epithelial electrical resistance (TER), tight junction integrity; details: fully mature iPSC-RPE; for TER resistance: minimum threshold 400 Ωcm^2, DMSO around 1100
Protocol: Different techniques were used to study RPE morphologic features.
At this point the trans-epithelial electrical resistance (TER) was assayed to confirm the quality of differentiation and examine the effect of drugs on tight junction integrity. The minimum threshold of 400 Ωcm^2 for epithelial resistance per unit area is used to determine good batches of differentiation.
Trans-epithelial electrical resistance (TER) is a measure of the tightness of the monolayer. The tighter the monolayer, the healthier are the cells in the monolayer. A cutoff of 400 ohm*cm^2 was used to exclude cells with low TER. […] The range specifies 90% of the data.

iPSC-RPE [3] = assay: Single-cell RNA sequencing; details: AGN 193109-, endo-IWR-1- and DMSO-treated cells
Protocol: Single-cell RNA sequencing was performed to confirm that the compounds changed cell transcriptome.

iPSC-RPE [4] = assay: High-content compound screening on iPSC-RPE, cell area quantified with REShAPE; details: 384-well plates, 30 days in RPE maturation medium
Protocol: Screening of Compound Library and Imaging: 115 drugs targeting various developmental pathways or cytoskeletal stressors were selected to form a new developmental library of compounds. The drugs are either activators or inhibitors of various signaling pathways and target proteins at different levels of the signaling cascades. For each drug, an initial concentration was selected, and adjustments made to the concentration of each drug. The assays were performed on iPSC-derived committed RPE. For every drug, the concentration was lowered if toxicity was detected or increased if there was no evident effect on cell morphology in comparison to control. The list of compounds tested can be found in Table 1. The high-content screening was performed in 384-well plates (cat #6057300, Perkin Elmer) using a range of 3 different concentrations (3×, 1×, 0.3×). […]
Morphometric Analysis Using REShAPE: The binary segmentation produced by the CNN algorithm was transferred to REShAPE for cell shape analysis. […] For every cell in a field of view that has been successfully segmented, REShAPE provide quantification of more than 25 different shape metrics. […] In addition, the software created images of segmented cells for every metric analyzed, where every cell is color-coded according to the raw values (FIG. 4). The color-coded images display the location of the cells analyzed. […]

iPSC-RPE [5] = assay: Transmission electron microscopy, fine intracellular structures; details: TEM, AGN 193109 0.2 μM, endo-IWR-1 4 uM
Protocol: Finally, transmission electron microscopy (TEM) was used to detect fine morphological alterations, whereas scanning electron microscopy (SEM) was essential to study modifications in apical processes structures. […] In DMSO-treated iPSC-RPE we found both types of apical processes, petal and finger-like.
as §1

| SMILES | pigmentation levels (iPSC-RPE [1]) | effect on epithelial barrier / tight junction integrity (iPSC-RPE [2]) | TER resistance (iPSC-RPE [2]) | single cell transcriptome clustering (iPSC-RPE [3]) | effect on iPSC-RPE cell area / cell size distribution in the screening (iPSC-RPE [4]) | fine intracellular structures (iPSC-RPE [5]) | pigmentation levels (iPSC-RPE [1]; listed as Endo-IWR-1) | pigmentation levels (iPSC-RPE [1]; listed as endo-IWR-1) | fine intracellular structures (iPSC-RPE [5]; listed as endo-IWR-1) |
| --- | --- | --- | --- | --- | --- | --- | --- | --- | --- |
| Cc1ccc(C2=CCC(C)(C)c3ccc(C#Cc4ccc(C(=O)O)cc4)cc32)cc1 [AGN 193109, 4-[2-[5,6-Dihydro-5,5-dimethyl-8-(4-methylphenyl)-2-naphthalenyl]ethynyl]-benzoic acid] | preserved; also recorded: did not alter pigmentation levels | maintained tight junction integrity | ~1600 Ωcm^2 | cluster separately from each other | reproduces macular and peripheral cell sizes in vitro, respectively | no fine intracellular structure defects were identified; also recorded: nor did they affect gross or fine cell morphology |  |  |  |
| O=C(Nc1cccc2cccnc12)c1ccc(N2C(=O)C3C4C=CC(C4)C3C2=O)cc1 (stereo not drawn) [ENDO-1-IWR, 4-(1,3,3a,4,7,7a-Hexahydro-1,3-dioxo-4,7-methano-2H-isoindol-2-yl)-N-8-quinolinyl-Benzamide] | preserved | maintained tight junction integrity | ~1200 Ωcm^2 | cluster separately from each other | reproduces macular and peripheral cell sizes in vitro, respectively | no fine intracellular structure defects were identified | did not alter pigmentation levels | did not alter pigmentation levels | nor did they affect gross or fine cell morphology |
